Results as given in the NIST ThermoML archive (doi:10.1021/je0301489).

Tests used:
[1] = refractive index (Na D-line) (dimensionless); details: 101.33 kPa, Liquid
[2] = 101.33 kPa, Liquid
[3] = xn = mol fraction of the nth substance listed; details: 101.33 kPa, Liquid
[4] = refractive index (Na D-line) (dimensionless); xn = mol fraction of the nth substance listed; details: 101.33 kPa, Liquid

CCCCCCCCOC(=O)c1ccccc1C(=O)OCCCCCCCC [dioctyl 1,2-benzenedicarboxylate]
Details | mass density, 298.15 K [kg/m3] | mass density, 303.15 K [kg/m3] | mass density, 308.15 K [kg/m3] | refractive index, 298.15 K | refractive index, 303.15 K | refractive index, 308.15 K | speed of sound, 298.15 K [m/s] | viscosity, 298.15 K [mPa·s] | viscosity, 303.15 K [mPa·s] | viscosity, 308.15 K [mPa·s]
[1] | – | – | – | 1.485 | 1.4831 | 1.481 | – | – | – | –
[2] | 980.7 | 977.1 | 973.1 | – | – | – | 1421 | 43.03 | 30.18 | 21.88

C1COCCO1 [1,4-dioxane] + CCCCCCCCOC(=O)c1ccccc1C(=O)OCCCCCCCC
x1 = 1
Details | mass density, 298.15 K [kg/m3] | mass density, 303.15 K [kg/m3] | mass density, 308.15 K [kg/m3] | refractive index, 298.15 K | refractive index, 303.15 K | refractive index, 308.15 K | speed of sound, 298.15 K [m/s] | viscosity, 298.15 K [mPa·s] | viscosity, 303.15 K [mPa·s] | viscosity, 308.15 K [mPa·s]
[3] | 1027.6 | 1021.9 | 1016.2 | – | – | – | 1348 | 1.166 | 1.069 | 0.984
[4] | – | – | – | 1.4202 | 1.417 | 1.4144 | – | – | – | –

C1COCCO1 [1,4-dioxane] + CCOC(=O)c1ccccc1C(=O)OCC
x1 = 1
Details | mass density, 298.15 K [kg/m3] | mass density, 303.15 K [kg/m3] | mass density, 308.15 K [kg/m3] | refractive index, 298.15 K | refractive index, 303.15 K | refractive index, 308.15 K | speed of sound, 298.15 K [m/s] | viscosity, 298.15 K [mPa·s] | viscosity, 303.15 K [mPa·s] | viscosity, 308.15 K [mPa·s]
[3] | 1027.6 | 1021.9 | 1016.2 | – | – | – | 1347 | 1.167 | 1.069 | 0.984
[4] | – | – | – | 1.4202 | 1.417 | 1.4144 | – | – | – | –

CCOC(=O)C(=O)OCC [diethyl ethanedioate] + C1COCCO1
Details | mass density, 298.15 K [kg/m3] | mass density, 303.15 K [kg/m3] | mass density, 308.15 K [kg/m3] | refractive index, 298.15 K | refractive index, 303.15 K | refractive index, 308.15 K | speed of sound, 298.15 K [m/s] | viscosity, 298.15 K [mPa·s] | viscosity, 303.15 K [mPa·s] | viscosity, 308.15 K [mPa·s]
[3], x2 = 0 | 1072.9 | 1066.2 | 1060.8 | – | – | – | 1276 | 1.759 | 1.581 | 1.437
[3], x2 = 0.1094 | 1070.9 | 1064.2 | 1058.1 | – | – | – | 1284 | 1.69 | 1.539 | 1.388
[3], x2 = 0.2069 | 1067.5 | 1061.4 | 1055.3 | – | – | – | 1292 | 1.631 | 1.487 | 1.343
[3], x2 = 0.3098 | 1064.4 | 1058.3 | 1052.1 | – | – | – | 1301 | 1.566 | 1.428 | 1.291
[3], x2 = 0.4009 | 1061.1 | 1055 | 1048.9 | – | – | – | 1310 | 1.505 | 1.375 | 1.245
[3], x2 = 0.4975 | 1057.3 | 1051.1 | 1045 | – | – | – | 1320 | 1.44 | 1.316 | 1.193
[3], x2 = 0.5978 | 1052.8 | 1046.7 | 1040.6 | – | – | – | 1329 | 1.375 | 1.259 | 1.143
[3], x2 = 0.7008 | 1047.7 | 1041.5 | 1035.4 | – | – | – | 1337 | 1.312 | 1.203 | 1.094
[3], x2 = 0.7971 | 1042.1 | 1036.1 | 1029.9 | – | – | – | 1343 | 1.259 | 1.157 | 1.055
[3], x2 = 0.8976 | 1035.5 | 1029.5 | 1023.6 | – | – | – | 1347 | 1.206 | 1.111 | 1.016
[4], x2 = 0 | – | – | – | 1.4084 | 1.406 | 1.4034 | – | – | – | –
[4], x2 = 0.1094 | – | – | – | 1.4092 | 1.4068 | 1.4043 | – | – | – | –
[4], x2 = 0.2069 | – | – | – | 1.4101 | 1.4077 | 1.4052 | – | – | – | –
[4], x2 = 0.3098 | – | – | – | 1.4112 | 1.4087 | 1.4062 | – | – | – | –
[4], x2 = 0.4009 | – | – | – | 1.4119 | 1.4094 | 1.407 | – | – | – | –
[4], x2 = 0.4975 | – | – | – | 1.4129 | 1.4106 | 1.4084 | – | – | – | –
[4], x2 = 0.5978 | – | – | – | 1.4144 | 1.4118 | 1.409 | – | – | – | –
[4], x2 = 0.7008 | – | – | – | 1.4157 | 1.4132 | 1.4106 | – | – | – | –
[4], x2 = 0.7971 | – | – | – | 1.417 | 1.4145 | 1.412 | – | – | – | –
[4], x2 = 0.8976 | – | – | – | 1.4183 | 1.4158 | 1.4132 | – | – | – | –

C1COCCO1 [1,4-dioxane] + CCOC(=O)C(=O)OCC
x1 = 1
Details | mass density, 298.15 K [kg/m3] | mass density, 303.15 K [kg/m3] | mass density, 308.15 K [kg/m3] | refractive index, 298.15 K | refractive index, 303.15 K | refractive index, 308.15 K | speed of sound, 298.15 K [m/s] | viscosity, 298.15 K [mPa·s] | viscosity, 303.15 K [mPa·s] | viscosity, 308.15 K [mPa·s]
[3] | 1027.6 | 1021.9 | 1016.2 | – | – | – | 1348 | 1.167 | 1.069 | 0.984
[4] | – | – | – | 1.4202 | 1.417 | 1.4144 | – | – | – | –

C1COCCO1 [1,4-dioxane] + CCOC(=O)CC(C)=O
x1 = 1
Details | mass density, 298.15 K [kg/m3] | mass density, 303.15 K [kg/m3] | mass density, 308.15 K [kg/m3] | refractive index, 298.15 K | refractive index, 303.15 K | refractive index, 308.15 K | speed of sound, 298.15 K [m/s] | viscosity, 298.15 K [mPa·s] | viscosity, 303.15 K [mPa·s] | viscosity, 308.15 K [mPa·s]
[3] | 1027.6 | 1021.9 | 1016.2 | – | – | – | 1347 | 1.166 | 1.069 | 0.984
[4] | – | – | – | 1.4201 | 1.417 | 1.4144 | – | – | – | –

CCOC(=O)CC(C)=O [ethyl 3-oxobutanoate] + C1COCCO1
Details | mass density, 298.15 K [kg/m3] | mass density, 303.15 K [kg/m3] | mass density, 308.15 K [kg/m3] | refractive index, 298.15 K | refractive index, 303.15 K | refractive index, 308.15 K | speed of sound, 298.15 K [m/s] | viscosity, 298.15 K [mPa·s] | viscosity, 303.15 K [mPa·s] | viscosity, 308.15 K [mPa·s]
[3], x2 = 0 | 1020.9 | 1014.9 | 1010.2 | – | – | – | 1331 | 1.48 | 1.339 | 1.239
[3], x2 = 0.1134 | 1021.5 | 1016 | 1010.6 | – | – | – | 1335 | 1.425 | 1.311 | 1.197
[3], x2 = 0.2058 | 1022.1 | 1016.5 | 1011 | – | – | – | 1338 | 1.386 | 1.276 | 1.165
[3], x2 = 0.3054 | 1022.7 | 1017.1 | 1011.4 | – | – | – | 1340 | 1.346 | 1.24 | 1.133
[3], x2 = 0.4008 | 1023.3 | 1017.6 | 1011.9 | – | – | – | 1342 | 1.309 | 1.205 | 1.102
[3], x2 = 0.4986 | 1024 | 1018.2 | 1012.4 | – | – | – | 1344 | 1.272 | 1.172 | 1.072
[3], x2 = 0.5955 | 1024.7 | 1018.8 | 1013 | – | – | – | 1345 | 1.237 | 1.14 | 1.044
[3], x2 = 0.6972 | 1025.4 | 1019.5 | 1013.7 | – | – | – | 1346 | 1.208 | 1.115 | 1.021
[3], x2 = 0.7971 | 1026.1 | 1020.3 | 1014.4 | – | – | – | 1346 | 1.182 | 1.091 | 1
[3], x2 = 0.8964 | 1026.8 | 1021 | 1015.2 | – | – | – | 1347 | 1.166 | 1.077 | 0.988
[4], x2 = 0 | – | – | – | 1.4166 | 1.4145 | 1.412 | – | – | – | –
[4], x2 = 0.1134 | – | – | – | 1.417 | 1.4146 | 1.4122 | – | – | – | –
[4], x2 = 0.2058 | – | – | – | 1.4171 | 1.4148 | 1.4124 | – | – | – | –
[4], x2 = 0.3054 | – | – | – | 1.4174 | 1.415 | 1.4126 | – | – | – | –
[4], x2 = 0.4008 | – | – | – | 1.4176 | 1.4154 | 1.413 | – | – | – | –
[4], x2 = 0.4986 | – | – | – | 1.4178 | 1.4155 | 1.413 | – | – | – | –
[4], x2 = 0.5955 | – | – | – | 1.418 | 1.416 | 1.4132 | – | – | – | –
[4], x2 = 0.6972 | – | – | – | 1.4186 | 1.4162 | 1.4137 | – | – | – | –
[4], x2 = 0.7971 | – | – | – | 1.4192 | 1.4166 | 1.414 | – | – | – | –
[4], x2 = 0.8964 | – | – | – | 1.4195 | 1.4169 | 1.4144 | – | – | – | –
